From patent US12492193B2, “Pyrazole derivatives for the treatment of cystic fibrosis” (Fondazione Istituto Italiano Di Tecnologia, priority 2017, dated 2025)
pEC50: −log10 of the molar value.

Each compound was assayed against T1, mutant CFTR (Homo sapiens, UniProt P13569, DEL508-508) (assay: Fluorescence (HS-YFP) assay for CFTR activity, corrector assay). Conditions: CFBE41o- and FRT cells with stable expression of mutant CFTR, 24 h compound treatment.
T1 construct: expressed in transfected cells
T1 sequence (P13569 with tags, fused parts or gaps DEL508-508): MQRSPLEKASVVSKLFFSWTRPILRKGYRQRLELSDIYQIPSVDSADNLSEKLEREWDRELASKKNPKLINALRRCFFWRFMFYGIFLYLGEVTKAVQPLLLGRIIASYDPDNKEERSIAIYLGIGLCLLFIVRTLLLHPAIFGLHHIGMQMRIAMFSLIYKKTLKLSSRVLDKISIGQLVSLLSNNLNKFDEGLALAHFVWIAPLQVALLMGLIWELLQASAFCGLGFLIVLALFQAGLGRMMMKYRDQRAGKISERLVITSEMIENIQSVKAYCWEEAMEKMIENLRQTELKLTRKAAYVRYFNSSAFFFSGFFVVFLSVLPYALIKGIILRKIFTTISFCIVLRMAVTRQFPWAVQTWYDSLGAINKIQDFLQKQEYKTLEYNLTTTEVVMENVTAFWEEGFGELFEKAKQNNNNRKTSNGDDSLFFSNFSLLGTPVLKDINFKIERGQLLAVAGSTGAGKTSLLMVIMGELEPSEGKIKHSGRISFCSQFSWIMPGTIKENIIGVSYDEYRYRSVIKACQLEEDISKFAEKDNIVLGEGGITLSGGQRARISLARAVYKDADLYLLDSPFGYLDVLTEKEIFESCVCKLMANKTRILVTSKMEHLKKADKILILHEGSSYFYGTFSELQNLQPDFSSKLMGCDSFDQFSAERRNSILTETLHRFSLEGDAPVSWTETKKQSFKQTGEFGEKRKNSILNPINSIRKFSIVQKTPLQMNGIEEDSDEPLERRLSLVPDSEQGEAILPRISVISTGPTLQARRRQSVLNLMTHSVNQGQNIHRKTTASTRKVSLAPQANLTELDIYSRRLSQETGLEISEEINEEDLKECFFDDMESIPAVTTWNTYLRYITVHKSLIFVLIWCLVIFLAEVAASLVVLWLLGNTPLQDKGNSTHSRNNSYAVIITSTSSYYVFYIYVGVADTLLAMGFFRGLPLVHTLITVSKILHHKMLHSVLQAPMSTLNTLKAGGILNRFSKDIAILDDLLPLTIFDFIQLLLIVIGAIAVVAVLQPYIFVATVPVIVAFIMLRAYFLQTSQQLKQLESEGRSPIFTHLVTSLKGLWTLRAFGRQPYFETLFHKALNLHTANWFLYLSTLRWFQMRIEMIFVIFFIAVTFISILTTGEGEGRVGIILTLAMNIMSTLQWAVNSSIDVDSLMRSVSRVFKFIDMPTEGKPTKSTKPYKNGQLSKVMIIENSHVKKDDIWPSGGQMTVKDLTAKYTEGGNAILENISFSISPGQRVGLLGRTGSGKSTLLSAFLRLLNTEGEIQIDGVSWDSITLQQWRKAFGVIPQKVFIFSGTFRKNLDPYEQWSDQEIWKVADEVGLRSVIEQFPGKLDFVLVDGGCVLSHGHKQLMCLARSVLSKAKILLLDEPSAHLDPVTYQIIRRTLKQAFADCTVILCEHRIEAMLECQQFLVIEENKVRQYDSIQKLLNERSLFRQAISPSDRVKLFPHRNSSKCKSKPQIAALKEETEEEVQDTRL
Type: cell-based
Summary of the method: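 Corrector activity: 24 h compound treatment of HS-YFP/mutant-CFTR CFBE41o- or FRT cells, followed by 30 min forskolin 20 μM + genistein 50 μM at 37° C. Iodide influx (100 mM final) was tracked as fluorescence quenching, with dF/dt extrapolated by exponential fitting; EC50 values derived.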
`COc1ccccc1-c1cc(C(F)(F)F)nn1-c1cccc(C(=O)N(C)c2ccc3c(c2)OCO3)c1` [compound 184, N-(1,3-Benzodioxol-5-yl)-3-[5-(2-methoxyphenyl)-3-(trifluoromethyl)pyrazol-1-yl]-N-methyl-benzamide] showed a pEC50 greater than 6.00.
For `CN(C(=O)c1cccc(-n2nc(C(F)(F)F)c(C#N)c2Oc2ccccc2)c1)c1ccc2c(c1)OCO2` [compound 185, N-(1,3-Benzodioxol-5-yl)-3-[4-cyano-5-phenoxy-3-(trifluoromethyl)pyrazol-1-yl]-N-methyl-benzamide], the pEC50 was greater than 6.00.
Compound `Cc1c(C=O)c(C(F)(F)F)nn1-c1cccc(C(=O)N(C)c2ccc3c(c2)OCO3)c1` [compound 186, N-(1,3-Benzodioxol-5-yl)-3-[4-formyl-5-methyl-3-(trifluoromethyl)pyrazol-1-yl]-N-methyl-benzamide] has a pEC50 greater than 6.00.
`Cc1c(C#N)c(C(F)(F)F)nn1-c1cccc(C(=O)N(C)c2ccc3c(c2)OCO3)c1` [compound 187, N-(1,3-Benzodioxol-5-yl)-3-[4-cyano-5-methyl-3-(trifluoromethyl)pyrazol-1-yl]-N-methyl-benzamide] gave a pEC50 greater than 6.00.
For `Cc1nc2ccc(N(C)C(=O)c3cccc(-n4nc(C(F)(F)F)cc4OCc4ccc(C(=O)OC(C)(C)C)cc4)c3)cc2o1` [compound 188, Tert-butyl 4-[[2-[3-[methyl-(2-methyl-1,3-benzoxazol-6-yl)carbamoyl]phenyl]-5-(trifluoromethyl)pyrazol-3-yl]oxymethyl]benzoate], the pEC50 was greater than 6.00.
Work on `Cc1nc2cc(F)c(N(C)C(=O)c3cccc(-n4nc(C(F)(F)F)cc4OCc4ccc(C(=O)OC(C)(C)C)cc4)c3)cc2o1` [compound 189, Tert-butyl 4-[[2-[3-[(5-fluoro-2-methyl-1,3-benzoxazol-6-yl)-methyl-carbamoyl]phenyl]-5-(trifluoromethyl)pyrazol-3-yl]oxymethyl]benzoate] yielded a pEC50 greater than 6.00.
For `Cc1nc2ccc(N(C)C(=O)c3cccc(-n4nc(C(F)(F)F)c(Cl)c4OCc4ccc(C(=O)OC(C)(C)C)cc4)c3)cc2o1` [compound 190, Tert-butyl 4-[[4-chloro-2-[3-[methyl-(2-methyl-1,3-benzoxazol-6-yl)carbamoyl]phenyl]-5-(trifluoromethyl)pyrazol-3-yl]oxymethyl]benzoate], the pEC50 was greater than 6.00.
`CN(C(=O)c1cccc(-n2nc(C(F)(F)F)cc2OCc2ccc(C(=O)OC(C)(C)C)cc2)c1)c1ccc2c(c1)OC(F)(F)O2` [compound 191, Tert-butyl 4-[[2-[3-[(2,2-difluoro-1,3-benzodioxol-5-yl)-methyl-carbamoyl]phenyl]-5-(trifluoromethyl)pyrazol-3-yl]oxymethyl]benzoate] was tested, and the pEC50 was greater than 6.00.
`CN(C(=O)c1cccc(-n2nc(-c3ccccn3)cc2C(F)(F)F)c1)c1ccc2c(c1)OCO2` [compound 192, N-(1,3-benzodioxol-5-yl)-N-methyl-3-[3-(2-pyridyl)-5-(trifluoromethyl)pyrazol-1-yl]benzamide] gave a pEC50 of 5.70 to 6.00.
`CN(C(=O)c1cccc(-n2nc(C(F)(F)F)cc2-c2cccnc2)c1)c1ccc2c(c1)OCO2` [compound 193, N-(1,3-Benzodioxol-5-yl)-N-methyl-3-[5-(3-pyridyl)-3-(trifluoromethyl)pyrazol-1-yl]benzamide] gave a pEC50 greater than 6.00.
Compound `CN(C(=O)c1cccc(-n2nc(-c3cccnc3)cc2C(F)(F)F)c1)c1ccc2c(c1)OCO2` [compound 194, N-(1,3-Benzodioxol-5-yl)-N-methyl-3-[3-(3-pyridyl)-5-(trifluoromethyl)pyrazol-1-yl]benzamide] has a pEC50 of 5.70 to 6.00.
`Cc1nc2ccc(N(C)C(=O)c3cccc(-n4nc(C(F)(F)F)cc4OCc4ccc(C(=O)O)cc4)c3)cc2o1` [compound 195, 4-[[2-[3-[Methyl-(2-methyl-1,3-benzoxazol-6-yl)carbamoyl]phenyl]-5-(trifluoromethyl)pyrazol-3-yl]oxymethyl]benzoic acid] gave a pEC50 greater than 6.00.
Compound `Cc1nc2cc(F)c(N(C)C(=O)c3cccc(-n4nc(C(F)(F)F)cc4OCc4ccc(C(=O)O)cc4)c3)cc2o1` [compound 196, 4-[[2-[3-[(5-Fluoro-2-methyl-1,3-benzoxazol-6-yl)-methyl-carbamoyl]phenyl]-5-(trifluoromethyl)pyrazol-3-yl]oxymethyl]benzoic acid] has a pEC50 greater than 6.00.
With `CN(C(=O)c1cccc(-n2nc(C(F)(F)F)cc2OCc2ccc(C(=O)O)cc2)c1)c1ccc2c(c1)OC(F)(F)O2` [compound 197, 4-[[2-[3-[(2,2-difluoro-1,3-benzodioxol-5-yl)-methyl-carbamoyl]phenyl]-5-(trifluoromethyl)pyrazol-3-yl]oxymethyl]benzoic acid] the pEC50 was greater than 6.00.
With `Cc1nc2ccc(N(C)C(=O)c3cccc(-n4nc(C(F)(F)F)c(Cl)c4OCc4ccc(C(=O)O)cc4)c3)cc2o1` [compound 198, 4-[[4-Chloro-2-[3-[methyl-(2-methyl-1,3-benzoxazol-6-yl)carbamoyl]phenyl]-5-(trifluoromethyl)pyrazol-3-yl]oxymethyl]benzoic acid] the pEC50 was greater than 6.00.
Compound `CN(C(=O)c1cccc(-n2nc(C(F)(F)F)c(C#N)c2Oc2ccc(C(=O)OC(C)(C)C)cc2)c1)c1ccc2c(c1)OCO2` [compound 200, Tert-butyl 4-[2-[3-[1,3-benzodioxol-5-yl (methyl)carbamoyl]phenyl]-4-cyano-5-(trifluoromethyl)pyrazol-3-yl]oxybenzoate] has a pEC50 greater than 6.00.
`CN(C(=O)c1cccc(-n2nc(C(F)(F)F)c(Cl)c2OCc2ccc(C(=O)OC(C)(C)C)cc2)c1)c1ccc2c(c1)OC(F)(F)O2` [compound 201, Tert-butyl 4-[[4-chloro-2-[3-[(2,2-difluoro-1,3-benzodioxol-5-yl)-methyl-carbamoyl]phenyl]-5-(trifluoromethyl)pyrazol-3-yl]oxymethyl]benzoate] showed a pEC50 greater than 6.00.
Compound `Cc1nc2cc(F)c(N(C)C(=O)c3cccc(-n4nc(C(F)(F)F)c(Cl)c4OCc4ccc(C(=O)OC(C)(C)C)cc4)c3)cc2o1` [compound 202, Tert-butyl 4-[[4-chloro-2-[3-[(5-fluoro-2-methyl-1,3-benzoxazol-6-yl)-methyl-carbamoyl]phenyl]-5-(trifluoromethyl)pyrazol-3-yl]oxymethyl]benzoate] has a pEC50 greater than 6.00.
`Cc1cc(C(F)(F)F)nn1-c1cccc(S(=O)(=O)N(C)c2ccc3c(c2)OCO3)c1` [compound 204, N-(1,3-Benzodioxol-5-yl)-N-methyl-3-[5-methyl-3-(trifluoromethyl)pyrazol-1-yl]benzenesulfonamide] was tested, and the pEC50 was 5.70 to 6.00.
`Cc1c(Cl)c(C(F)(F)F)nn1-c1cccc(C(=O)Nc2ccc3c(c2C(=O)O)OCO3)c1` [compound 205, 5-[[3-[4-chloro-5-methyl-3-(trifluoromethyl)pyrazol-1-yl]benzoyl]amino]-1,3-benzodioxole-4-carboxylic acid] was tested, and the pEC50 was less than 5.70.
`Cc1c(Cl)c(C(F)(F)F)nn1-c1cccc(C(=O)Nc2ccc3c(c2CO)OCO3)c1` [compound 206, 3-[4-chloro-5-methyl-3-(trifluoromethyl)pyrazol-1-yl]-N-[4-(hydroxymethyl)-1,3-benzodioxol-5-yl]benzamide] showed a pEC50 of less than 5.70.
In the case of `Cc1c(Cl)c(C(F)(F)F)nn1-c1cccc(C(=O)N(C)c2ccc3c(c2C=O)OCO3)c1` [compound 207, 3-[4-chloro-5-methyl-3-(trifluoromethyl)pyrazol-1-yl]-N-(4-formyl-1,3-benzodioxol-5-yl)-N-methyl-benzamide], the pEC50 was less than 5.70.
With `Cc1c(Cl)c(C(F)(F)F)nn1-c1cccc(C(=O)N(C)c2ccc3c(c2C(=O)O)OCO3)c1` [compound 208, 5-[[3-[4-chloro-5-methyl-3-(trifluoromethyl)pyrazol-1-yl]benzoyl]-methyl-amino]-1,3-benzodioxole-4-carboxylic acid] the pEC50 was less than 5.70.
For `Cc1c(Cl)c(C(F)(F)F)nn1-c1cccc(C(=O)N(C)c2ccc3c(c2CO)OCO3)c1` [compound 209, 3-[4-chloro-5-methyl-3-(trifluoromethyl)pyrazol-1-yl]-N-[4-(hydroxymethyl)-1,3-benzodioxol-5-yl]-N-methyl-benzamide], the pEC50 was less than 5.70.
Work on `CN(C(=O)c1cccc(-n2nc(C(F)(F)F)c(C#N)c2Oc2ccc(C(=O)O)cc2)c1)c1ccc2c(c1)OCO2` [compound 210, 4-[2-[3-[1,3-Benzodioxol-5-yl(methyl)carbamoyl]phenyl]-4-cyano-5-(trifluoromethyl)pyrazol-3-yl]oxybenzoic acid] yielded a pEC50 of less than 5.70.
`CN(C(=O)c1cccc(-n2nc(C(F)(F)F)c(Cl)c2OCc2ccc(C(=O)O)cc2)c1)c1ccc2c(c1)OC(F)(F)O2` [compound 211, 4-[[4-Chloro-2-[3-[(2,2-difluoro-1,3-benzodioxol-5-yl)-methyl-carbamoyl]phenyl]-5-(trifluoromethyl)pyrazol-3-yl]oxymethyl]benzoic acid] showed a pEC50 greater than 6.00.
With `Cc1nc2cc(F)c(N(C)C(=O)c3cccc(-n4nc(C(F)(F)F)c(Cl)c4OCc4ccc(C(=O)O)cc4)c3)cc2o1` [compound 212, 4-[[4-Chloro-2-[3-[(5-fluoro-2-methyl-1,3-benzoxazol-6-yl)-methyl-carbamoyl]phenyl]-5-(trifluoromethyl)pyrazol-3-yl]oxymethyl]benzoic acid] the pEC50 was greater than 6.00.
With `CN(C(=O)c1cccc(-n2nc(C(F)(F)F)cc2O[C@H]2CC[C@@H](C(=O)O)CC2)c1)c1ccc2c(c1)OCO2` [compound 216, Cis-4-[2-[3-[1,3-benzodioxol-5-yl(methyl)carbamoyl]phenyl]-5-(trifluoromethyl)pyrazol-3-yl]oxycyclohexane carboxylic acid] the pEC50 was greater than 6.00.
`CN(C(=O)c1cccc(-n2nc(C(F)(F)F)c(Cl)c2CO)c1)c1ccc2c(c1)OC(F)(F)O2` [compound 217, 3-[4-Chloro-5-(hydroxymethyl)-3-(trifluoromethyl)pyrazol-1-yl]-N-(2,2-difluoro-1,3-benzodioxol-5-yl)-N-methyl-benzamide] gave a pEC50 greater than 6.00.
For `CN(C(=O)c1cccc(-n2nc(C(F)(F)F)cc2COc2ccc(C(=O)O)cc2)c1)c1ccc2c(c1)OC(F)(F)O2` [compound 218, 4-[[2-[3-[(2,2-difluoro-1,3-benzodioxol-5-yl)-methyl-carbamoyl]phenyl]-5-(trifluoromethyl)pyrazol-3-yl]methoxy]benzoic acid], the pEC50 was greater than 6.00.
